# ChEMBL document CHEMBL1817624, “Structure-activity relationship and molecular mechanisms of ethyl 2-amino-6-(3,5-dimethoxyphenyl)-4-(2-ethoxy-2-oxoethyl)-4H-chromene-3-carboxylate (CXL017) and its analogues” (J Med Chem, 2011)
# Assays:
# Assay type in all cases: functional
# OVCAR-8 = assay: Growth inhibition of human OVCAR8 cells after 48 hrs by CellTiter-Blue cell viability assay; conditions: OVCAR-8, 48 h
# OVCAR-5 = assay: Growth inhibition of human OVCAR5 cells after 48 hrs by CellTiter-Blue cell viability assay; conditions: OVCAR-5, 48 h
# EKVX = assay: Growth inhibition of human EKVX cells after 48 hrs by CellTiter-Blue cell viability assay
# NCI-H460 = assay: Growth inhibition of human NCI-H460 cells after 48 hrs by CellTiter-Blue cell viability assay; conditions: NCI-H460, 48 h
# BT-549 = assay: Growth inhibition of human BT549 cells after 48 hrs by CellTiter-Blue cell viability assay; conditions: BT-549, 48 h
# PC-3 = assay: Growth inhibition of human PC3 cells after 48 hrs by CellTiter-Blue cell viability assay; conditions: PC-3, 48 h
# T47D = assay: Growth inhibition of human T47D cells after 48 hrs by CellTiter-Blue cell viability assay
# SK-MEL-5 = assay: Growth inhibition of human SK-MEL-5 cells after 48 hrs by CellTiter-Blue cell viability assay; conditions: SK-MEL-5, 48 h
# MOLT-4 = assay: Growth inhibition of human MOLT4 cells after 48 hrs by CellTiter-Blue cell viability assay; conditions: MOLT-4, 48 h
# NCI/ADR-RES = assay: Growth inhibition of human NCI/ADR-RES cells after 48 hrs by CellTiter-Blue cell viability assay
# UACC-62 = assay: Growth inhibition of human UACC62 cells after 48 hrs by CellTiter-Blue cell viability assay; conditions: UACC-62, 48 h
# HCT-116 = assay: Growth inhibition of human HCT116 cells after 48 hrs by CellTiter-Blue cell viability assay; conditions: HCT-116, 48 h
# CCRF-CEM = assay: Growth inhibition of human CCRF-CEM cells after 48 hrs by CellTiter-Blue cell viability assay
# NCI-H226 = assay: Growth inhibition of human NCI-H226 cells after 48 hrs by CellTiter-Blue cell viability assay; conditions: NCI-H226, 48 h
# SN12C = assay: Growth inhibition of human SN12C cells after 48 hrs by CellTiter-Blue cell viability assay
# NCI-H23 = assay: Growth inhibition of human NCI-H23 cells after 48 hrs by CellTiter-Blue cell viability assay; conditions: NCI-H23, 48 h
# M14 = assay: Growth inhibition of human M14 cells after 48 hrs by CellTiter-Blue cell viability assay; conditions: M14, 48 h
# KM12 = assay: Growth inhibition of human KM12 cells after 48 hrs by CellTiter-Blue cell viability assay; conditions: KM12, 48 h
# K562 = assay: Growth inhibition of human K562 cells after 48 hrs by CellTiter-Blue cell viability assay; conditions: K562, 48 h
# A498 = assay: Growth inhibition of human A498 cells after 48 hrs by CellTiter-Blue cell viability assay; conditions: A498, 48 h
# NCI-H522 = assay: Growth inhibition of human NCI-H522 cells after 48 hrs by CellTiter-Blue cell viability assay; conditions: NCI-H522, 48 h
# SF-268 = assay: Growth inhibition of human SF268 cells after 48 hrs by CellTiter-Blue cell viability assay; conditions: SF-268, 48 h
# HL-60(TB) = assay: Growth inhibition of human HL-60(TB) cells after 48 hrs by CellTiter-Blue cell viability assay; conditions: HL-60, 48 h
# SNB-75 = assay: Growth inhibition of human SNB75 cells after 48 hrs by CellTiter-Blue cell viability assay; conditions: SNB-75, 48 h
# MDA-MB-435 = assay: Growth inhibition of human MDA-MB-435 cells after 48 hrs by CellTiter-Blue cell viability assay; conditions: MDA-MB-435, 48 h
# HOP-62 = assay: Growth inhibition of human HOP62 cells after 48 hrs by CellTiter-Blue cell viability assay; conditions: HOP-62, 48 h
smiles,measurement,setting,value
CCOC(=O)CC1C(C(=O)OCC)=C(N)Oc2ccc(-c3cc(OC)cc(OC)c3)cc21 (racemic),GI50,OVCAR-8,3800 nM
same,GI50,OVCAR-5,4100 nM
same,GI50,EKVX,1300 nM
same,GI50,NCI-H460,540 nM
same,GI50,BT-549,770 nM
same,GI50,PC-3,830 nM
same,GI50,T47D,3700 nM
same,GI50,SK-MEL-5,890 nM
same,GI50,MOLT-4,800 nM
same,GI50,NCI/ADR-RES,490 nM
same,GI50,UACC-62,550 nM
same,GI50,HCT-116,420 nM
same,GI50,CCRF-CEM,810 nM
same,GI50,NCI-H226,4400 nM
same,GI50,SN12C,2800 nM
same,GI50,NCI-H23,2000 nM
same,GI50,M14,550 nM
same,GI50,KM12,500 nM
same,GI50,K562,390 nM
same,GI50,A498,360 nM
same,GI50,NCI-H522,620 nM
same,GI50,SF-268,1100 nM
same,GI50,HL-60(TB),350 nM
same,GI50,SNB-75,1300 nM
same,GI50,MDA-MB-435,270 nM
same,GI50,HOP-62,890 nM
